Measurements from patent US20020165236A1, “Compounds for the treatment of protozoal diseases” (priority 2001, published 2002).

Experiments:
[1] = system: multiresistant Dd2 strain of Plasmodium falciparum; experiment: antiplasmodial action, [8-3H]hypoxanthine incorporation, Dd2 strain; format: cell-based; conditions: read-out: in vitro antiplasmodial activity (IC50 value class)
Protocol: For the determination of the antiplasmodial action of the compounds, the multiresistant Dd2 strain of Plasmodium falciparum was used. The incorporation of [8-^3H]hypoxanthine into the parasitic nucleic acids was measured. The plasmodia were incubated at 0.3% parasitaemia and an erythrocyte haematocrit of 2.5% in the presence of different concentrations of the compounds in a final volume of 200-μl. The medium employed was RPMI 1640 which contained 10% of heat-treated human serum and 3 mg/l of gentamycin. in the incubations, the concentrations of the compounds varied from 0.3 to 100 μM. After 48 h, each batch was treated with 50 µl of […] (1 mCi/ml) and incubated for a further 18 h. The cells were filtered off, washed and suspended in 20 μl of scintillation fluid. The radioactive hypoxanthine absorbed by the parasites was then quantified using a scintillation counter.
The results were presented graphically and the IC50 value was determined using a fitting function. The value IC50, the ‘inhibition constant’, indicates the value in μMol/1 at which 50% inhibition occurs.

[2] = system: 3D7 chloroquine sensitive strain of Plasmodium falciparum; experiment: antiplasmodial activity against 3D7 strain; format: cell-based; conditions: read-out: in vitro antiplasmodial activity (IC50 value class)
Protocol: Antiplasmodial activity against the 3D7 chloroquine sensitive strain of Plasmodium falciparumwas determined as described elsewhere (J. Med. Chem. (2001) 44(19), 3187-3194).

N=C(N)c1cccc(NC(=O)Nc2cccc([N+](=O)[O-])c2)c1 [Compound 5]
IC50 [1]: 10 to 100 µM
IC50 [2]: 1 to 10 µM

N=C(N)c1cccc(NC(=O)Nc2cccc(C(F)(F)F)c2)c1 [Compound 10]
IC50 [1]: 1 to 10 µM
IC50 [2]: 1 to 10 µM

N=C(N)c1cccc(NC(=O)Nc2cc(C(F)(F)F)cc(C(F)(F)F)c2)c1 [Compound 13]
IC50 [1]: 1 to 10 µM
IC50 [2]: 1 to 10 µM

N=C(N)c1ccc(NC(=O)Nc2cc(C(F)(F)F)cc(C(F)(F)F)c2)cc1 [Compound 15]
IC50 [1]: 1 to 10 µM
IC50 [2]: 1 to 10 µM

N=C(N)c1cccc(NC(=O)Nc2ccc3c(c2)S(=O)(=O)C=C3)c1 [Compound 18]
IC50 [1]: < 1 µM
IC50 [2]: < 1 µM

N=C(N)c1cccc(NC(=O)Nc2cccc(S(N)(=O)=O)c2)c1 [Compound 24]
IC50 [1]: 10 to 100 µM
IC50 [2]: 10 to 100 µM

N=C(N)c1cccc(NC(=O)Nc2ccc(S(=O)(=O)NCc3ccc(OC(F)(F)F)cc3)cc2)c1 [Compound 34]
IC50 [1]: < 1 µM
IC50 [2]: 1 to 10 µM

N=C(N)c1cccc(NC(=O)Nc2ccc(S(=O)(=O)c3ccccc3)cc2)c1 [Compound 61]
IC50 [1]: 1 to 10 µM
IC50 [2]: 1 to 10 µM

N=C(N)c1cccc(NC(=O)Nc2cccc(S(=O)(=O)c3ccccc3)c2)c1 [Compound 62]
IC50 [1]: 1 to 10 µM
IC50 [2]: 1 to 10 µM

N=C(N)c1ccc(NC(=O)Nc2ccc(S(=O)(=O)c3ccccc3)cc2)cc1 [Compound 64]
IC50 [1]: < 1 µM
IC50 [2]: 1 to 10 µM

Cc1ccc(C(=O)Nc2ccc(NC(=O)Nc3cccc(C(=N)N)c3)cc2O)cc1 [Compound 67]
IC50 [1]: 1 to 10 µM
IC50 [2]: 1 to 10 µM

N=C(NCC1CCCO1)c1cccc(NC(=O)Nc2ccc(S(=O)(=O)c3ccc([N+](=O)[O-])cc3)cc2)c1 (centres unmarked) [Compound 84]
IC50 [1]: 1 to 10 µM

N=C(NO)c1cccc(NC(=O)Nc2ccc(S(=O)(=O)c3ccc([N+](=O)[O-])cc3)cc2)c1 [Compound 85]
IC50 [1]: < 1 µM

COC(=O)c1cc(NC(=O)Nc2cccc(C(=N)Nc3cccnc3)c2)cc(C(F)(F)F)c1 [Compound 86]
IC50 [1]: 1 to 10 µM

COC(=O)c1cc(NC(=O)Nc2cccc(C(=N)NCCN(C)C)c2)cc(C(F)(F)F)c1 [Compound 87]
IC50 [1]: 1 to 10 µM

COC(=O)c1cc(NC(=O)Nc2cccc(C(=N)NCCN3CCCC3)c2)cc(C(F)(F)F)c1 [Compound 88]
IC50 [1]: 1 to 10 µM

N=C(Nc1cccnc1)c1cccc(NC(=O)Nc2ccc(S(=O)(=O)NCc3ccc(S(N)(=O)=O)cc3)cc2)c1 [Compound 89]
IC50 [1]: 1 to 10 µM

N=C(NCCN1CCOCC1)c1cccc(NC(=O)Nc2ccc(S(=O)(=O)NCc3ccc(S(N)(=O)=O)cc3)cc2)c1 [Compound 90]
IC50 [1]: < 1 µM

O=C(Nc1cccc(C2=NCCN2)c1)Nc1cccc(C(F)(F)F)c1 [Compound 91]
IC50 [1]: < 1 µM

N=C(NCCN1CCOCC1)c1cccc(NC(=O)Nc2cccc(C(F)(F)F)c2)c1 [Compound 93]
IC50 [1]: 1 to 10 µM

N=C(NO)c1cccc(NC(=O)Nc2ccc(S(=O)(=O)NCc3ccc(S(N)(=O)=O)cc3)cc2)c1 [Compound 96]
IC50 [1]: 1 to 10 µM

N=C(Nc1ccc(-c2ccccc2)cc1)c1cccc(NC(=O)Nc2cccc(C(F)(F)F)c2)c1 [Compound 100]
IC50 [1]: 1 to 10 µM

N=C(N)c1cccc(NC(=O)C(=O)Nc2ccc(S(=O)(=O)NCc3ccccc3)cc2)c1 [Compound 101, N-(4-benzylsulfamoylphenyl)-N′-(3-carbamimidoyl-phenyl)-oxalamide]
IC50 [1]: 1 to 10 µM

N=C(N)c1cccc(NC(=O)C(=O)Nc2cccc(S(=O)(=O)NCc3ccccc3)c2)c1 [Compound 102, N-(3-benzylsulfamoylphenyl)-N′-(3-carbamimidoyl-phenyl)-oxalamide]
IC50 [1]: 10 to 100 µM
